These results are taken from ChEMBL document CHEMBL1811818, “Arthrobotrisins A-C, oligosporons from the nematode-trapping fungus Arthrobotrys oligospora” (2011).

Molecules are shown by their SMILES. Calls of active or inactive are those of the source. No cut-off for these calls is given here.

For experiment [1], the system named is Bacillus sp. Description: Antibacterial activity against Bacillus sp. 3.38 at 300 ug by agar diffusion assay. It counts as functional. The settings on record: Bacillus sp. (in: firmicutes), read-out: IZ. In general terms: In agar diffusion tests the substance spreads into inoculated agar from a disc or well.
In experiment [2] the test system is Bacillus sp. Description: Antibacterial activity against Bacillus sp. 3.38 at 150 ug by agar diffusion assay. It counts as functional. The settings on record: Bacillus sp. (in: firmicutes), read-out: IZ.
Experiment [3] relates to Panagrellus redivivus. Description: Nematicidal activity against Panagrellus redivivus assessed as effect on larval development at 200 ug/mL after 48 hrs. The experiment is classed as functional, organism-based.
The test system of experiment [4] is Bacillus sp. As to the kind of experiment: Antibacterial activity against Bacillus sp. 3.38 at 50 ug by agar diffusion assay. It counts as functional. The settings on record: Bacillus sp. (in: firmicutes), read-out: DIZ.
For experiment [5], the system named is Bacillus subtilis. As to the kind of experiment: Antibacterial activity against Bacillus subtilis 3.34 assessed as by agar diffusion assay. The experiment is classed as functional.
For experiment [6], the system named is Staphylococcus aureus. As to the kind of experiment: Antibacterial activity against Staphylococcus aureus 3.17 at 50 ug by agar diffusion assay. The experiment is classed as functional. The settings on record: read-out: DIZ.
Experiment [7] concerns Bacillus subtilis. Description: Antibacterial activity against Bacillus subtilis 3.34 at 25 ug by agar diffusion assay. The experiment is classed as functional. The following applies: read-out: IZ.
Experiment [8] has as its system Bacillus subtilis. Description: Antibacterial activity against Bacillus subtilis 3.34 at 50 ug by agar diffusion assay. The experiment is classed as functional. The following applies: read-out: IZ.
The test system of experiment [9] is Bacillus subtilis. Description: Antibacterial activity against Bacillus subtilis 3.34 at 10 ug by agar diffusion assay. It counts as functional. The following applies: read-out: DIZ.

With `CC(C)=CCC/C(C)=C/C[C@H](O)/C(C)=C/[C@H](O)[C@]12O[C@H]1[C@H](O)C(CO)=C[C@@H]2O` [ARTHROBOTRISIN B], the zone of inhibition at 300 µg/disc in experiment [1] is 8 mm. Further, in experiment [2], the zone of inhibition at 150 µg/disc worked out at 4.7 mm. The result in experiment [3] was inactive.

For the compound `CC(C)=CCC/C(C)=C/C[C@H](O)/C(C)=C/[C@H](O)[C@]12O[C@H]1[C@@H](O)C(CO)=C[C@@H]2O` [ARTHROBOTRISIN C], the zone of inhibition at 50 µg/disc was 9.1 mm in [4], 7 mm in experiment [6] and 19.4 mm in experiment [8]. Further, in experiment [5], the MIC stood at 5 µg. Also, the zone of inhibition at 25 µg/disc in [7] came to 14.2 mm. For the same compound, the result in experiment [3] was inactive.

`O=C(N[C@H](CO)[C@H](O)c1ccc([N+](=O)[O-])cc1)C(Cl)Cl` [CHLORAMPHENICOL]: the zone of inhibition at 10 µg/disc in experiment [9] was determined as 36.3 mm.
